pEC50: −log10 of the molar value. Counter-ions that a name gives are not always drawn.
Assays:
hS1P1 receptors = target: T1, hS1P1 receptors (Homo sapiens, UniProt P21453); experiment: Intracellular Ca2+ mobilization in CHO cells expressing human S1P receptors (hS1P1); assay type: cell-based; details: read-out: S1P1 (EC50 class, intracellular Ca2+ mobilization)
T1 construct: expressed in transfected cells; host or cells: CHO cells (Geneticin-selected)
Method: (§1) Test for the Ability of Test Compounds to Induce Intracellular Ca^2+ Mobilization in Cells Expressing Human S1P (Sphingosine-1-Phosphate) Receptors
(§2) CHO cells expressing human S1P receptors (i.e., CHO cells expressing hS1P1 receptors or hS1P3 receptors) were subcultured on Ham's F-12 medium supplemented with 10% fetal bovine serum and 200 μg/mL Geneticin. The cells were seeded on a 96-well black clear bottom plate (COSTAR) at 4×10^4 cells/well and were cultured overnight at 37° C. in 5% CO2. A fluorescent reagent that emits fluorescence upon binding to Ca^2+ (Calcium Screening Kit (DOJINDO)) was added to the culture and the cells were further cultured for 60 min at 37° C. in 5% CO2. After culturing, microplate spectrofluorometer (FLEX station, MOLECULAR DEVICE) was used to measure the fluorescence intensity at an excitation wavelength of 485 nm and a detection wavelength of 525 nm. S1P or a test compound adjusted with cultural medium to a concentration 10 times higher than the final concentration (final DMSO concentration=0.1%). Each test compound solution was added 18 sec. after beginning of the measurement of fluorescence. The fluorescence intensity was measured every 1.5 sec for 100 sec. For each test compound, the difference between the maximum fluorescence intensity and the minimum fluorescence intensity (i.e., increase in fluorescence) was determined from the measurements. The rate of fluorescence increase (%) for each test compound was calculated by the difference (100%) of the fluorescence increase between solvent only and S1P (10^−6M). Using this value as an index of the ability of the test compound to induce intracellular Ca^2+ mobilization, EC50 was determined by PRISM software (GraphPad).

hS1P3 receptors = target: T2, hS1P3 receptors (Homo sapiens, UniProt Q99500); experiment: Intracellular Ca2+ mobilization in CHO cells expressing human S1P receptors (hS1P3); assay type: cell-based; details: read-out: S1P3 (EC50 class, intracellular Ca2+ mobilization)
T2 construct: expressed in transfected cells; host or cells: CHO cells (Geneticin-selected)
T2 sequence (Q99500 whole entry): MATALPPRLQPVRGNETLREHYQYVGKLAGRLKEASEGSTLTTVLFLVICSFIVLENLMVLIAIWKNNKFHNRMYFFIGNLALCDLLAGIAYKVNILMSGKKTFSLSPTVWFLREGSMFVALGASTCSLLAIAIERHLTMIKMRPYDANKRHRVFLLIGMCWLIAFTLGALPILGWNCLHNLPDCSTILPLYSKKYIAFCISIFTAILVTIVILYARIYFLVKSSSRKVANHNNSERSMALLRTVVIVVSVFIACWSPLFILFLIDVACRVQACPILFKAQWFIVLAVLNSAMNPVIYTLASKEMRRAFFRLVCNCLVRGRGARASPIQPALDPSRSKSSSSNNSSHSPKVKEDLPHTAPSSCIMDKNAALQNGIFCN
Method: as §1, §2

[1] = test system: host vs. graft rejection in mice; experiment: Inhibitory effects on host vs. graft rejection in mice (right popliteal lymph node weight); assay type: in vivo, C3H/HeN mice; details: Mus musculus
Method: Inhibitory Effects of Test Compounds on Host Vs. Graft Rejection in Mice
This experiment was performed according to the method described in Transplantation 55(3) (1993): 578-591. Spleens were collected from 6 to 16 week old male BALB/c mice (CHARLES RIVER JAPAN). The spleens were placed in an RPMI-1640 medium (SIGMA) and were gently pressed between two slide glasses and then passed through a cell strainer (70 μm, Falcon) to form a cell suspension. The suspension was then centrifuged and the supernatant was discarded. An ammonium chloride-Tris isotonic buffer was added to the suspension to lyse erythrocytes. The cells were then centrifuged three times in RPMI-1640 medium for washing and were resuspended in an RPMI-1640 medium. To this suspension, mitomycin C (KYOWA HAKKO KOGYO Co., Ltd.) was added to a final concentration of 25 μg/mL and the suspension was incubated for 30 minutes at 37° C. in a 5% CO2 atmosphere. The cells were centrifuged three times in RPMI-1640 medium for washing and were resuspended in an RPMI-1640 medium so that the medium would contain 2.5×10^8 cells/mL. This suspension served as a “stimulation cell suspension.” Using a 27 G needle with a microsyringe (Hamilton), 20 μL (5×10^6 cells/mouse) of the stimulation cell suspension was subcutaneously injected into the right hind footpad of 6 to 8 week old male C3H/HeN mice (CLEA JAPAN). Normal control group was injected with RPMI-1640 medium alone. 4 days after the injection, right popliteal lymph nodes were collected and were weighed on a Mettler AT201 electronic scale (METTLER TOLEDO Co., Ltd.). Each animal was intraperitoneally administered a test compound once a day for four consecutive days starting on the day of the injection of the stimulation cells (i.e., total of 4 times). Control groups were administered the same vehicle as that used in the preparation of each test compound. The inhibition (%) was determined using the following formula {[Weight of right popliteal lymph nodes of positive control group]−[Weight of right popliteal lymph nodes of test compound group]×100}/{[Weight of right popliteal lymph nodes of positive control group]−[Weight of right popliteal lymph nodes of normal control group]} Formula 1

hS1P4 receptors = target: T3, hS1P4 receptors (Homo sapiens, UniProt O95977); experiment: Activation of extracellular regulatory kinase (ERK) in CHO cells expressing hS1P4 receptors; assay type: cell-based
T3 construct: expressed in transfected cells; host or cells: CHO cells (Geneticin-selected)
T3 sequence (O95977 1-384): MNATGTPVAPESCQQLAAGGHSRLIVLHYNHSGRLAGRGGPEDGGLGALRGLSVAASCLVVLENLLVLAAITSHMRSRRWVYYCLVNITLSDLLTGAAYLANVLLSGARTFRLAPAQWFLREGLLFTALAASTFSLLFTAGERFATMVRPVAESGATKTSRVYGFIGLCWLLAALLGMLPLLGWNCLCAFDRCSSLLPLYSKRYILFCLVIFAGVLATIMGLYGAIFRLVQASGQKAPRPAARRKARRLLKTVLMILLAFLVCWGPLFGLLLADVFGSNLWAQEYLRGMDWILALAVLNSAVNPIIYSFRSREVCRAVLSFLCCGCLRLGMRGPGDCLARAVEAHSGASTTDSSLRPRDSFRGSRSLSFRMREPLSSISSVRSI
Method: Test for the Ability of Test Compounds to Induce Activation of Extracellular Regulatory Kinase (ERK) in Cells Expressing Human S1P Receptors
CHO cells expressing human S1P receptors (i.e., CHO cells expressing hS1P4 receptors) were subcultured on Ham's F-12 medium supplemented with 10% fetal bovine serum and 200 μg/mL Geneticin. The cells were seeded on a 6-well cell culture plate (COSTAR) at 3×10^5 cells/well and were cultured overnight at 37° C. in 5% CO2. On the following day, the medium was replaced with FBS-free Ham's F-12 medium (containing 0.1% fatty acid-free bovine serum albumin) and the cells were cultured overnight at 37° C. in 5% CO2. S1P or a test compound adjusted with Ham's F-12 medium (with 0.1% fatty acid-free bovine serum albumin) to a concentration 10 times higher than the final concentration (final DMSO concentration=0.1%). Each test compound solution was added to this culture plate. The cells were cultured for 5 min at 37° C. in 5% CO2. The medium was removed and the cells were washed with a 200 μmol/L ice-cold PBS containing Na3VO4. A lysis buffer (20 mmol/L Tris-HCl pH 7.5, 1% Triton X-100, 1 mmol/L EDTA, 1 mmol/L EGTA, 0.5 mmol/L Na3VO4, 0.1% β-mercaptoethanol, 50 mmol/L NaF, 5 mmol/L Na4O7P3, 10 mmol/L C3H7O6Na, 1 μmol/L Microcystin LR, 1× Complete Protease Inhibitor Cocktail (ROCHE)) was then added to the cells and the reaction was carried out on ice for 5 min to lyse the cells. The cell lysate was subjected to sodium dodecyl sulfate-polyacrylamide gel electrophoresis (SDS-PAGE) to separate proteins. The proteins were transferred to a PVDF membrane (Hybond-P, Amersham Biosciences). The membrane was reacted overnight at 4° C. with anti-phospho ERK (p42/44 MAPK) monoclonal antibody (E10, Cell Signaling Technologies) diluted 1000-fold, and was subsequently reacted for 1 hour at room temperature with alkaline phosphatase-labeled anti-mouse IgG antibody (Molecular Probe) diluted 6000-fold. After washing with 20 mmol/L Tris-HCl and 150 mmol/L NaCl solution, the PVDF membrane was fluorostained with DDAO phosphate (DyeChrome Western Blot Stain Kit, Molecular Probe), a fluorescent substrate of alkaline phosphatase. The fluorescence was detected using a variable image analyzer (Typhoon 8600, Amersham Biosciences). The detected signal of phosphorylated ERK was quantified using ImageQuant software (Molecular Dynamics). The rate of ERK activation (%) for each test compound was calculated by the difference (100%) of the signal intensity between solvent only and S1P (10^−6 mol/L).

T1 sequence (P21453 whole entry): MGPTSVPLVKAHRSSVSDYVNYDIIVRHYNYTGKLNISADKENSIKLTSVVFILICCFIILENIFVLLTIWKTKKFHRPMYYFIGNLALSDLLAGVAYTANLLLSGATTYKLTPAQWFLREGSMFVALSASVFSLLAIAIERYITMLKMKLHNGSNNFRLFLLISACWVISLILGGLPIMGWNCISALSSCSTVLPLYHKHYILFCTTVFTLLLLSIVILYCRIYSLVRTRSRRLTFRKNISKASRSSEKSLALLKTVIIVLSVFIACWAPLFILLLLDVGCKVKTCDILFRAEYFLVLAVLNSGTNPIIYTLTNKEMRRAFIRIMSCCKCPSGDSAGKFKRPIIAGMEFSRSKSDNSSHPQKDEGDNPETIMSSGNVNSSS

| SMILES | pEC50 (hS1P1 receptors) | pEC50 (hS1P3 receptors) | also measured |
| --- | --- | --- | --- |
| CC(N)(CCCc1ccc(Sc2cccc(OCc3ccccc3)c2)cc1Cl)COP(=O)(O)O (single isomer, unassigned; (+)) [Example 239, (+)-2-amino-5-[4-(3-benzyloxyphenylthio)-2-chlorophenyl]-2-methylpentylphosphonate monoester] | > 8.00 | > 8.00 | inhibition in vivo at 0.03 mg/kg [1]: 65% |
| CCOP(=O)(C=CC(N)CCCc1ccc(Sc2cccc(OCc3ccccc3)c2)cc1Cl)OCC (stereo not drawn) [Example 233, Diethyl 3-amino-6-[4-(3-benzyloxyphenylthio)-2-chlorophenyl]-1-hexenylphosphonate hydrochloride] |  |  | inhibition in vivo at 30 mg/kg [1]: 53% |
| CCOP(=O)(CCC(N)CCCc1ccc(Sc2cccc(OCc3ccccc3)c2)cc1Cl)OCC (stereo not drawn) [Example 235, Diethyl 3-amino-6-[4-(3-benzyloxyphenylthio)-2-chlorophenyl]hexylphosphonate hydrochloride] |  |  | inhibition in vivo at 30 mg/kg [1]: 56% |
| NC(CO)(CCCc1ccc(Sc2cccc(OCc3ccccc3)c2)cc1Cl)COP(=O)(O)O (stereo not drawn) [Example 236, 2-amino-5-[4-(3-benzyloxyphenylthio)-2-chlorophenyl]-2-hydroxymethylpentylphosphonate monoester] | 7.00 to 8.00 | 7.00 to 8.00 | inhibition in vivo at 0.03 mg/kg [1]: 73%; Induction effect of ERK activation on hS1P-expressing CHO cells (Activation rate (%) relative to the activated ERK at S1P10-6 mol/L) (hS1P4 receptors; Compound Conc. 1 nmol/L): 8.0%; Induction effect of ERK activation on hS1P-expressing CHO cells (Activation rate (%) relative to the activated ERK at S1P10-6 mol/L) (hS1P4 receptors; Compound Conc. 10 nmol/L): 119.5% |
| NC(CO)(CCc1ccc(Sc2cccc(OCc3ccccc3)c2)cc1Cl)COP(=O)(O)O (stereo not drawn) [Example 237, 2-amino-4-[4-(3-benzyloxyphenylthio)-2-chlorophenyl]-2-hydroxymethylbutylphosphonate monoester] | > 8.00 | > 8.00 | inhibition in vivo at 0.1 mg/kg ([1]; Dose 0.1 mg/kg): 75%; Induction effect of ERK activation on hS1P-expressing CHO cells (Activation rate (%) relative to the activated ERK at S1P10-6 mol/L) (hS1P4 receptors; Compound Conc. 1 nmol/L): 35.8%; Induction effect of ERK activation on hS1P-expressing CHO cells (Activation rate (%) relative to the activated ERK at S1P10-6 mol/L) (hS1P4 receptors; Compound Conc. 10 nmol/L): 80.7% |
| NC(CO)(CCCc1ccc(Sc2cccc(O)c2)cc1Cl)COP(=O)(O)O (stereo not drawn) [Example 238, 2-amino-5-[2-chloro-4-(3-hydroxyphenylthio)phenyl]-2-hydroxymethylpentylphosphonate monoester] | 6.00 to 7.00 | ≤ 6.00 | inhibition in vivo at 3 mg/kg ([1]; Dose 3 mg/kg): 65% |
| NC(CCCc1ccc(Sc2cccc(OCc3ccccc3)c2)cc1Cl)CCP(=O)(O)O (stereo not drawn) [Example 241, 3-amino-6-[4-(3-benzyloxyphenylthio)-2-chlorophenyl]hexylphosphonic acid] | 6.00 to 7.00 | ≤ 6.00 | inhibition in vivo at 10 mg/kg [1]: 46% |
| NC(/C=C/P(=O)(O)O)CCCc1ccc(Sc2cccc(OCc3ccccc3)c2)cc1Cl (stereo not drawn) [Example 242, 3-amino-6-[4-(3-benzyloxyphenylthio)-2-chlorophenyl]-1-hexenylphosphonic acid] | 6.00 to 7.00 | ≤ 6.00 | inhibition in vivo at 10 mg/kg [1]: 62% |

Reference: patent US7759326B2, “Aminophosphonic acid derivative, salt thereof, and modulator of S1P receptor” (Kyorin Pharmaceutical Co., Ltd., priority 2003, dated 2010)
